# Data: patent US7049292B2, “Therapeutically effective peptides related to preproinsulin” (King's College London, priority 2004, dated 2006)
# Where “and” joins values, the source holds several entries; their conditions need not be identical. Equal entries are not always repeated. Where two headings read alike, the source gives them in different places. Ends that are not written are not given here.
# Assays:
# [1] = system: pathogenic (IFN-γ) CD4+ T lymphocytes in PBMCs; assay: IFN-γ ELISPOT analysis of PBMCs cultured with peptide; format: cell-based, human; conditions: for Prevalence of IFN-γ responses, Totals (%) / Prevalence of IFN-γ responses, Totals (responders/tested): positive response SI≧3.0; for IFN-γ response, stimulation index (SI): PBMCs, peptide 10 μM
# [2] = system: anti-inflammatory (IL-10 secreting) CD4+ T lymphocytes in PBMCs; format: cell-based, human; conditions: for IL-10 response, stimulation index (SI): PBMCs, peptide 10 μM
# [3] = T1DM patients with HLA-DR4 alleles
# [4] = T1DM patients with non-DR4 alleles
# [5] = non-diabetic control subject C9
# [6] = patient #3, T1DM with HLA-DR4 alleles
# [7] = patient #6, T1DM with HLA-DR4 alleles
# [8] = patient #13, T1DM with HLA-DR4 alleles
# [9] = patient #24, T1DM with HLA-DR4 alleles
# [10] = patient #27, T1DM with non-DR4 alleles
# [11] = non-diabetic control subject C8
# [12] = patient #35, T1DM with non-DR4 alleles
# [13] = patient #19, T1DM with HLA-DR4 alleles
# [14] = non-diabetic control subject C4
# [15] = non-diabetic control subject C13
# [16] = non-diabetic control subjects, positive response SI≧3.0
# [17] = patient #5, T1DM with HLA-DR4 alleles
# [18] = patient #4, T1DM with HLA-DR4 alleles
# [19] = patient #28, T1DM with non-DR4 alleles
# [20] = patient #29, T1DM with non-DR4 alleles
Substance,"Prevalence of IFN-γ responses, Totals (%) [1, 3]","Prevalence of IFN-γ responses, Totals (responders/tested) [1, 3]","Prevalence of IFN-γ responses, Totals (%) [1, 4]","Prevalence of IFN-γ responses, Totals (responders/tested) [1, 4]","Prevalence of IFN-γ responses, Totals (%) ([1]; non-diabetic control subjects)","Prevalence of IFN-γ responses, Totals (responders/tested) ([1]; non-diabetic control subjects)","IFN-γ response, stimulation index (SI) [1, 6]","IFN-γ response, stimulation index (SI) [1, 7]","IFN-γ response, stimulation index (SI) [1, 8]","IFN-γ response, stimulation index (SI) [1, 9]","Prevalence of IL-10 responses, Totals (responders/tested) [2]","IL-10 response, stimulation index (SI) [2, 11]","IL-10 response, stimulation index (SI) [2, 9]","IL-10 response, stimulation index (SI) [2, 10]","IFN-γ response, stimulation index (SI) [1, 13]","IL-10 response, stimulation index (SI) [2, 14]","IL-10 response, stimulation index (SI) [2, 15]","IL-10 response, stimulation index (SI) [2, 6]","IFN-γ response, stimulation index (SI) [1, 17]",further results
"SFYLKNVQTQETRTLTQFHF [853–72, IA-2 peptide eluted from HLA-DR4]",(28) %,7/25,(18) %,2/11,(7) %,1/14,10,6.6,3.6,48.3,2/17 and 2/7 and 2/14,66.0,9.0,20.0,–,–,–,–,–,"IFN-γ response, stimulation index (SI) [1, 5]: 4.7; IFN-γ response, stimulation index (SI) ([1]; patient #1, T1DM with HLA-DR4 alleles): 10.0; IFN-γ response, stimulation index (SI) ([1]; patient #9, T1DM with HLA-DR4 alleles): 5.2; IFN-γ response, stimulation index (SI) [1, 10]: 3.1; IFN-γ response, stimulation index (SI) ([1]; patient #34, T1DM with non-DR4 alleles): 3.7; IL-10 response, stimulation index (SI) ([2]; non-diabetic control subject C5): 4.7; IL-10 response, stimulation index (SI) [2, 7]: 4.3; IL-10 response, stimulation index (SI) [2, 12]: 9.6"
"LAKEWQALCAYQAEPNTCATAQGEGNIK [709–36, IA-2 peptide eluted from HLA-DR4]",(12) %,3/25,(0) %,0/11,(0) %,0/14,–,9.2,–,10.5,2/17 and 1/7,–,9.0,7.0,5.0,3.6,3.8,–,–,"IL-10 response, stimulation index (SI) ([2]; non-diabetic control subject C6): 3.2; Prevalence of IL-10 responses, Totals (responders/tested) [2, 16]: 3/14; IL-10 response, stimulation index (SI) [2, 17]: 3.5"
"793–817: IA-2 peptide sequence, residues 793–817 (DFWQMVWESGCTVIVMLTPLVEDGV; UniProt Q16849 793-817, looked up, fragment)",(12) %,3/25,(0) %,0/11,(0) %,0/14,9.7,–,4.1,–,1/17 and 1/7 and 2/14,–,–,34.0,19.0,3.4,3.5,3.0,–,"IFN-γ response, stimulation index (SI) [1, 18]: 3.5"
"GGGPGAGSLQPLALEGSLQK [C13-C32, preproinsulin peptide, residues C13-C32]",(12) %,2/17,(25) %,2/8,(0) %,0/14,–,8.6,–,–,–,–,–,–,–,–,–,–,3.8,"IFN-γ response, stimulation index (SI) [1, 19]: 11.5; IFN-γ response, stimulation index (SI) [1, 20]: 4.7; Prevalence of IL-10 responses, Totals (responders/tested) ([2]; listed as C13–32): 1/12 and 1/5 and 1/13"
"652–80: IA-2 peptide sequence, residues 652–80 (SRVSSVSSQFSDAAQASPSSHSSTPSWCE; UniProt Q16849 652-680, looked up, fragment)",(24) %,6/25,(9) %,1/11,(7) %,1/14,3.0,23.2,–,36.0,2/17 and 1/7 and 4/14,4.0,4.5,–,–,5.3,–,4.8,6.2,"IFN-γ response, stimulation index (SI) [1, 5]: 3.8; IFN-γ response, stimulation index (SI) ([1]; patient #2, T1DM with HLA-DR4 alleles): 3.1; IFN-γ response, stimulation index (SI) ([1]; patient #7, T1DM with HLA-DR4 alleles): 6.4; IFN-γ response, stimulation index (SI) [1, 10]: 16.7; IL-10 response, stimulation index (SI) [2, 5]: 3.5; IL-10 response, stimulation index (SI) ([2]; non-diabetic control subject C10): 8.4; IL-10 response, stimulation index (SI) [2, 12]: 8.0"
"955–76: IA-2 peptide sequence, residues 955–76 (SKDQFEFALTAVAEEVNAILKA; UniProt Q16849 955-976, looked up, fragment)",(16) %,4/25,(18) %,2/11,(0) %,0/14,4.7,11.2,–,38.0,2/17 and 1/7,15.0,29.5,4.0,3.0,5.6,–,3.0,–,"IFN-γ response, stimulation index (SI) [1, 18]: 3.0; IFN-γ response, stimulation index (SI) ([1]; patient #26, T1DM with non-DR4 alleles): 5.0; IFN-γ response, stimulation index (SI) ([1]; patient #30, T1DM with non-DR4 alleles): 4.7; IL-10 response, stimulation index (SI) ([2]; non-diabetic control subject C11): 5.2; Prevalence of IL-10 responses, Totals (responders/tested) [2, 16]: 3/14"
QPLALEGSLQKRGIVEQ [C22-A5],(18) %,3/17,(25) %,2/8,(0) %,0/14,–,22.0,3.3,–,1/12 and 1/5 and 1/13,–,–,3.0,–,–,4.3,7.36,3.7,"IFN-γ response, stimulation index (SI) [1, 19]: 5.8; IFN-γ response, stimulation index (SI) [1, 20]: 4.0"
